Measurements published in US20240131032A1, “AN ACTIVITY-GUIDED MAP OF ELECTROPHILE-CYSTEINE INTERACTIONS IN PRIMARY HUMAN IMMUNE CELLS” (The Scripps Research Institute, priority 2019, published 2024).

Columns and labels:
[1] = system: NuRD complex member mRNA; assay: mRNA expression of NuRD complex members (RNAseq); type: cell-based, human
Experimental: FIG. 7B is a scatter plot representation of protein abundance changes caused by BPK-25 (10 μM, 24 h) in two independent replicate experiments, with decreases in NuRD complex components highlighted in red. FIG. 7C is a heatmap of top proteins with decreased abundance in BPK-25-treated T cells showing that the subset of these proteins in the NuRD complex (asterisks) were largely unaltered by other active compounds and blocked in their degradation by co-treatment with the proteasome inhibitor MG132. […] FIG. 7E is a bar graph […] showing time-dependent reductions in NuRD complex members in human T cells treated with BPK-25 (10 μM). Left, representative western blots. Right, quantification of changes in protein. […] FIG. 7G is a heat map showing the changes in cysteine reactivity for NuRD complex members in human T cells treated with BPK-25 and other active compounds. […]
RNA quality was assessed using TapeStation 4200 and RNA-Seq libraries were prepared using the TruSeq stranded mRNA Sample Preparation Kit v2 according to Illumina protocols. Multiplexed libraries were validated using TapeStation 4200, normalized, pooled and quantified by qPCR for sequencing. […]
Sequenced reads were quality-tested using FASTQC Andrews S. (2010). […] Mapping was carried out using default parameters (up to 10 mismatches per read, and up to 9 multi-mapping locations per read). […]

[2] = target: T1, BIRC3 (Homo sapiens, UniProt Q13489); assay: isoTOP-ABPP and TMT-ABPP cysteine engagement, BIRC3; type: binding
T1 construct: endogenous in cells; host or cells: primary human T cells
Experimental: Activated or expanded T cells were re-suspended in RPMI media supplemented with 10% FBS, L-glutamine (2 mM), penicillin (100 U/mL), and streptomycin (100 μg/mL) at 2×10^6 cells/mL. The compounds were added to cells as 1000×DMSO stocks and mixed well with the media by pipetting up and down after addition. The cells were kept at 37° C. in 5% CO2 containing incubators for 3 h (or otherwise specified times), then pelleted by centrifugation (524 g, 5 min, 4° C.), washed with cold PBS (10 mL) and transferred to Eppendorf tubes (1 mL PBS). The cells were pelleted again (524 g, 5 min, 4° C.), flash-frozen, and kept at −80° C. until further analysis.
Activated or expanded primary human T cells were re-suspended in RPMI (1×10^6 cells/mL) containing 10% fetal bovine serum (FBS), penicillin (100 U/mL), streptomycin ([…]), and L-glutamine (2 mM). […] The resulting proteomes were analyzed by competitive isotopic Tandem Orthogonal Proteolysis Activity-Based Protein Profiling (isoTOP-ABPP). […]
The heavy/light isoTOP-ABPP ratios (R values) for each unique peptide (DMSO/compound treated) were quantified with in-house CIMAGE software (Weerapana et al., 2010) using default parameters (3 MS1 acquisitions per peak and signal to noise threshold set to 2.5). Site-specific engagement of cysteine residues was assessed by blockade of IA-alkyne probe labeling. […]

T1 sequence (Q13489 whole entry): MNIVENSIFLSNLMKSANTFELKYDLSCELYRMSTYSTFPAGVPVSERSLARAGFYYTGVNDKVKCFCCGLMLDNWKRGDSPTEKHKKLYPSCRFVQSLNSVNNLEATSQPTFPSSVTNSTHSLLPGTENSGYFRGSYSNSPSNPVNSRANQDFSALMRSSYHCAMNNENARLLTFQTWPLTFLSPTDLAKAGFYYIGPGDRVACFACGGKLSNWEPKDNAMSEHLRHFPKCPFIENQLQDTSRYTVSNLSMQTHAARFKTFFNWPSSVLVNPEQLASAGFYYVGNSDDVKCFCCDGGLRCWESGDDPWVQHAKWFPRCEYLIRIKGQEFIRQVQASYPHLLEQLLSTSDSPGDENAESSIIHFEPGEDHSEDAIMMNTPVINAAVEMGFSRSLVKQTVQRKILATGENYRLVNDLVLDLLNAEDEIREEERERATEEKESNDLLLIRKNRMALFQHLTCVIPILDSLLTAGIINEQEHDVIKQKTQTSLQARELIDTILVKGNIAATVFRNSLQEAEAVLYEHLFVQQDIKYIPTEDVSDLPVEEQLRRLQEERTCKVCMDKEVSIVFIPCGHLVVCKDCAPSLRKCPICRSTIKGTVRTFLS

Structure (SMILES) | mRNA expression for NuRD complex members [1] | engagement of C28 of BIRC3 [2]
C=CC(=O)N(Cc1cccc(Cl)n1)c1ccc(C(=O)Nc2ccccc2)nc1 [BPK-25] | not accompanied by corresponding changes in mRNA expression | –
O=C(CCl)N1CCN(S(=O)(=O)c2ccc(-c3ccncc3)cc2)CC1 [EV-3] | – | unique target
